# Test results: patent US20080287396A1, “Phosphonated Fluoroquinolones, Antibacterial Analogs Thereof, and Methods for the Prevention and Treatment of Bone and Joint Infections” (TARGANTA THERAPEUTICA INC., priority 2005, published 2008)
# Key:
# [1] = Bone powder binding, fluorometric detection; conditions: for Binding to bone (%) Fluorescence: 1 mg/ml compound, bone meal powder 10 mg/ml in PBS, 37° C., 1 h; for binding to osseous matter, in words: bisphosphonates bearing three hydroxy groups
# Description: The ability of the example molecules to bind to bone powder was established in two parallel fashions, using either LC/MS or fluorometric detection. For LC/MS detection, a stock solution (5 mM) of the compound to be tested was added to 0.1M Tris-HCl buffer pH 7, 0.15M NaCl to reach a final concentration of 100 μM. Triplicate samples (1 mL) of the compound solutions were intensively shaken for 10 min with or without 25 mg of fresh or 20 mg of vacuum dried ground rat tibia bone. The samples were then centrifuged for 15 min at 10 000 g. The presence of unbound compound was measured by injection of 30 μL of each of the supernatants into an Agilent 1100™ LC/UV system. For fluorometric detection, an individual compound was dissolved in PBS or water (compound 52) and resuspended at a concentration of 1 mg/ml in a slurry of bone meal powder (Now Foods, Bloomingdale, Ill., USA) in PBS at 10 mg/ml. The suspension of drug/prodrug in bone meal powder was incubated at 37° C. for 1 h to allow for binding, and centrifuged at 13 000 rpm for 2 min, before recovering the supernatant. The bone meal powder pellet was then washed three times with 1 ml of PBS. All supernatants were saved and assessed for fluoroquinolone content by fluorescence measurements at excitation/emission wavelengths of 280/465 nm. The amount of fluoroquinolone was determined from standard curves generated for each experiment. Amount of drug/prodrug bound to bone powder was deduced from the difference between the input amount (typically 1 mg) and the amount recovered in the supernatants after binding. In all binding experiments, >99% of input drug was recovered in the supernatant for the parent drugs.
# S. aureus ATCC 13709 = assay: Prophylactic model of bone infection in rats; format: in vivo, rat; conditions: for prophylactic effect in rat model of bone infection, in words: Table 4 and FIGS. 6-8, doses as in Table 4
# Description: To determine the activity in vivo of bisphosphonated prodrugs of fluoroquinolones, compounds 52 and 107, derivatives of parent compounds moxifloxacin 3 (for 52), and compounds 39, 44, 49, 54, 121, 129, 141, 145, 149, derivatives of parent compound gatifloxacin 15, were used in a prophylactic model for infection. Specifically, S. aureus ATCC 13709 cells were grown overnight at 37° C. in brain heart infusion broth (BHIB). Cells were subcultured into fresh BHIB and incubated for 4 to 5 h at 37° C. The cells were washed twice with phosphate-buffered saline (PBS) and resuspended in BHIB supplemented with 10% (vol./vol.) fetal bovine serum at a density of approximately 10^10 colony forming units (CFU)/ml (based upon turbidimetry). The suspension was aliquoted and a portion was used to check the CFU count. The culture was stored frozen (−80° C.) and was used without subculture. For use as an inoculum the culture was thawed, diluted in PBS and kept in an ice bath until it was used.
# Animals were infected as described by O'Reilly et al. (Antimicrobial Agents and Chemotherapy (1992), 36(12): 2693-97) to generate the bone infection. Female CD rats (age, 57 to 70 days; n=5/group; Charles River, St-Constant, Canada) were anaesthetized by isofluorane before and during the surgery. Following complete induction of anesthesia, the rat was placed ventral side up and hair was shaved from the surgical site. The skin over the leg was cleaned and disinfected (proviodine-ethanol 70%). A longitudinal incision below the knee joint was made in the sagital plane. The incision was made over the bone below the “knee joint” (tibia head or condyle) but not completely extending to the ankle. A high speed drill fitted with a 2 mm bulb bit was used to drill a hole into the medullar cavity of the tibia. Rats were injected intra-tibially with 0.05 ml 5% sodium morrhuate (sclerosing agent) and then with 0.05 ml of S. aureus suspension (ca. 5×10^5 CFU/rat). The hole was sealed by applying a small amount of dry dental cement which immediately absorbs fluids and adheres to the site. The wound was closed using 3 metal skin clips. Moxifloxacin 3 (as a positive control) was injected once at 10 mg/kg intravenously 1 h postinfection in saline, while the fluoroquinolone prodrugs (prepared in 0.9% saline) were injected as a single intravenous bolus dose at different time points prior to the infection. For comparison, the parent drug (moxifloxacin 3 or gatifloxacin 15) was also injected intravenously once at a molar equivalent dose at the same time point prior the infection.
# Infected rats were sacrificed by CO2 asphyxiation 24 h postinfection to monitor the bacterial CFU count. Infected tibiae were removed, dissected free of soft tissue, and weighed. The bones were ground using a metal ball mill, resuspended in 5 ml 0.9% NaCl, serially diluted and processed for quantitative cultures. For compounds 39, 44, 49, 54, 141, 145, 149, 1 ml of the 0.9% NaCl solution was added to 50 mg of charcoal before serial dilutions. Treatment efficacies were measured in terms of Log viable bacteria (Log CFU per gram of bone). The results obtained for each group of rats were evaluated by calculating the mean Log CFU and standard deviation. The limit of detection is 2 Log CFU/g of bone. Statistical comparisons of viable bacterial counts for the different treated and untreated groups were performed with Dunnett's multiple-comparison test. Differences were considered significant when the P value was <0.05 when comparing treated infected animals to the untreated infected ones.
SMILES,Binding to bone (%) Fluorescence [1],"prophylactic effect in rat model of bone infection, in words (S. aureus ATCC 13709)",other results
"O=C(O)c1cn(C2CC2)c2cc(N3CCNCC3)c(F)cc2c1=O [Compound 6, Ciprofloxacin, reference compound]",0%,–,–
"COc1c(N2C[C@@H]3CCCN[C@@H]3C2)c(F)cc2c(=O)c(C(=O)OCC(=O)Nc3ccc(CC(P(=O)(O)O)P(=O)(O)O)cc3)cn(C3CC3)c12 [Compound 62, (4-(2,2-Bisphosphonoethyl)phenylcarbamoyl)methyl 1-cyclopropyl-6-fluoro-1,4-dihydro-7-((4aS,7aS)-octahydropyrrolo[3,4-b]pyridin-6-yl)-8-methoxy-4-oxoquinoline-3-carboxylate]",97.2%,–,–
"COc1c(N2C[C@@H]3CCCN[C@@H]3C2)c(F)cc2c(=O)c(C(=O)OCC(=O)N(C)C(P(=O)(O)O)P(=O)(O)O)cn(C3CC3)c12 [Compound 80, (N-Methyl-1,1-Bisphosphonomethylcarbamoyl)methyl 1-cyclopropyl-6-fluoro-1,4-dihydro-7-((4aS,7aS)-octahydropyrrolo[3,4-b]pyridin-6-yl)-8-methoxy-4-oxoquinoline-3-carboxylate]",97.3%,–,–
"COc1c(N2C[C@@H]3CCCN[C@@H]3C2)c(F)cc2c(=O)c(C(=O)SCCCC(P(=O)(O)O)P(=O)(O)O)cn(C3CC3)c12 [Compound 94, S-4,4-bisphosphonobutyl 7-((4aS,7aS)-octahydropyrrolo[3,4-b]pyridin-6-yl)-1-cyclopropyl-6-fluoro-1,4-dihydro-8-methoxy-4-oxoquinoline-3-carbothioate]",99.9%,–,–
"COc1c(N2CCNC(C)C2)c(F)cc2c(=O)c(C(=O)SCCCC(P(=O)(O)O)P(=O)(O)O)cn(C3CC3)c12 (centres unmarked) [Compound 96, S-4,4-bisphosphonobutyl 7-(3-methylpiperazin-1-yl)-1-cyclopropyl-6-fluoro-1,4-dihydro-8-methoxy-4-oxoquinoline-3-carbothioate]",98.7%,–,–
"COc1c(N2C[C@@H]3CCCN[C@@H]3C2)c(F)cc2c(=O)c(C(=O)SCC(=O)NC(P(=O)(O)O)P(=O)(O)O)cn(C3CC3)c12 [Compound 99, S-(1,1-Bisphosphonomethylcarbamoyl)methyl 1-cyclopropyl-6-fluoro-1,4-dihydro-7-((4aS,7aS)-octahydropyrrolo[3,4-b]pyridin-6-yl)-8-methoxy-4-oxoquinoline-3-carbothioate]",99.0%,–,–
"COc1c(N2C[C@@H]3CCCN(C(=O)CC(P(=O)(O)O)P(=O)(O)O)[C@@H]3C2)c(F)cc2c(=O)c(C(=O)O)cn(C3CC3)c12 [Compound 107, 7-((4aS,7aS)-1-(3,3-bisphosphonopropionyl)-octahydropyrrolo[3,4-b]pyridin-6-yl)-1-cyclopropyl-6-fluoro-1,4-dihydro-8-methoxy-4-oxoquinoline-3-carboxylic acid]",98.2%,lack of effect,"Measured bacterial titer (Log CFU/g of bone) Test compound (S. aureus ATCC 13709; 19.4 mg/kg IV, 1 day prior to infection): 5.40 ± 0.93 Log CFU/g of bone"
"COc1c(N2CCN(C(=O)CC(P(=O)(O)O)P(=O)(O)O)C(C)C2)c(F)cc2c(=O)c(C(=O)O)cn(C3CC3)c12 (centres unmarked) [Compound 112, 7-(4-(3,3-bisphosphonopropionyl)-3-methylpiperazin-1-yl)-1-cyclopropyl-6-fluoro-1,4-dihydro-8-methoxy-4-oxoquinoline-3-carboxylic acid]",82.5%,–,–
"COc1c(N2C[C@@H]3CCCN(C(=O)OCC(=O)Nc4ccc(CC(P(=O)(O)O)P(=O)(O)O)cc4)[C@@H]3C2)c(F)cc2c(=O)c(C(=O)O)cn(C3CC3)c12 [Compound 117, 7-((4aS,7aS)-1-(((4-(2,2-bisphosphonoethyl)phenylcarbamoyl)methoxy)carbonyl)-octahydropyrrolo[3,4-b]pyridin-6-yl)-1-cyclopropyl-6-fluoro-1,4-dihydro-8-methoxy-4-oxoquinoline-3-carboxylic acid]",99.4%,–,–
"COc1c(N2CCN(CCC(=O)c3ccc(OCCCC(P(=O)(O)O)P(=O)(O)O)cc3)C(C)C2)c(F)cc2c(=O)c(C(=O)O)cn(C3CC3)c12 (centres unmarked) [Compound 121, 1-cyclopropyl-6-fluoro-1,4-dihydro-7-(4-(3-(4-(4,4-bisphosphonobutoxy)phenyl)-3-oxopropyl)-3-methylpiperazin-1-yl)-8-methoxy-4-oxoquinoline-3-carboxylic acid]",94.7%,efficient prophylactic effect,"Measured bacterial titer (Log CFU/g of bone) Test compound (S. aureus ATCC 13709; 20.8 mg/kg IV, 1 day prior to infection): 3.01 ± 0.47 Log CFU/g of bone"
"COc1c(N2CCN(Cc3oc(=O)oc3-c3ccc(P(=O)(O)CP(=O)(O)O)cc3)C(C)C2)c(F)cc2c(=O)c(C(=O)O)cn(C3CC3)c12 (centres unmarked) [Compound 129, 1-Cyclopropyl-6-fluoro-1,4-dihydro-8-methoxy-7-(3-methyl-4-((2-oxo-5-(4-(phosphonomethylphosphinoyl)phenyl)-1,3-dioxol-4-yl)methyl)piperazin-1-yl)-4-oxoquinoline-3-carboxylic acid]",63.7%,unable to produce a positive result in vivo,"Measured bacterial titer (Log CFU/g of bone) Test compound (S. aureus ATCC 13709; 10.75 mg/kg IV, 2 days prior to infection): 6.14 ± 1.05 Log CFU/g of bone; binding to osseous matter, in words [1]: less effectively bound"
COc1c(N2CCNC(C)C2)c(F)cc2c(=O)c(C(=O)OCC(=O)NCCCC[C@@H](NC(=O)COC(=O)c3cn(C4CC4)c4c(OC)c(N5CCNC(C)C5)c(F)cc4c3=O)C(=O)NC(P(=O)(O)O)P(=O)(O)O)cn(C3CC3)c12 (some centres unmarked) [Compound 134],92.8%,–,–
"COc1c(N2CCN(C(=O)CC(C)(C)c3cc(P(=O)(O)CP(=O)(O)O)ccc3OC(=O)C(C)C)C(C)C2)c(F)cc2c(=O)c(C(=O)O)cn(C3CC3)c12 (centres unmarked) [Compound 145, 7-(4-(3-(2-(2,2-dimethylacetoxy)-5-((phosphonomethyl)phosphonoyl)phenyl)-3-methylbutanoyl)-3-methylpiperazin-1-yl)-1-cyclopropyl-6-fluoro-1,4-dihydro-8-methoxy-4-oxoquinoline-3-carboxylic acid]",76.0%,unable to produce a positive result in vivo,"Measured bacterial titer (Log CFU/g of bone) Test compound (S. aureus ATCC 13709; 47.2 mg/kg IV, 2 days prior to infection): 4.69 ± 0.78 Log CFU/g of bone; binding to osseous matter, in words [1]: less effectively bound"
